Measurements as given in patent US20230002344A1, “NOVEL BENZOTHIOPHENE DERIVATIVES AND USE THEREOF FOR STIMULATING MITOCHONDRIAL TURNOVER” (NIBN, The National Institute For Biotechnology In The Negev …, priority 2019, published 2023).

Assays:
Type in all cases: cell-based
[1] = test system: INS1 cells expressing MitoTimer; experiment: MitoTimer red/green ratio high-content screen and dose-response; conditions: 18 h, Rapamycin 100 nM; for MitoTimer red/green ratio (known modulators): Urolithin 50 uM, Bafilomycin 200 nM, Chloroquine 20 uM
Protocol: INS1 cells were stably transduced with MitoTimer by lentiviral infection and were tested using known modulators of autophagy. The paradigm used was based on previous reports showing that the shift in emission from green to red occurs within 18 hours. Assuming that this shift is constant, changes in red FI occurring during this frame of time can result from an effect on MitoTimer clearance and not from an effect on synthesis. The paradigm employed consisted therefore of a treatment lasting 18 hours followed by imaging.
Stimulators of mitochondrial clearance were defined as those inducing a red-to-green FI below −3 and a red intensity below −5.1. Suppressors of mitochondrial clearance were defined as those inducing a red-to-green FI above 10.34 and a red intensity above 4.5. […] Compounds displaying high green FI (above 15) were also discarded to prevent the inclusion of autofluorescent molecules. Only molecules that filled the above criteria in both duplicates were further tested.
The screen was performed during 8 sessions in Weizmann institute. All compounds were tested at a concentration of 10 μM, in duplicates. The images were processed to reduce background (using Metamorph software) and then analyzed in GeneData software.
We subjected those compounds to a dose-response assay (concentrations: 10, 3.33, 1.11, 0.37 and 0.12 μM).
MitoTimer expressing INS1 cells generation, Cell Culture and treatments. MitoTimer-reporter was cloned into the pHAGE2 lenti-vector under the full-length EF1-alpha promoter to obtain constitutive expression. For the HCS, INS1 cells were infected with lentivirus carrying mitochondrial complex-I-targeted-MitoTimer plasmid. Highly expressing cells were selected by high speed fluorescence activated cell sorter (SY3200 cell sorter, Synergy, iCyt) and kept by the addition of puromycin (1 mg . L-1) in the cell media. Cells were thawed before each experiment, and MitoTimer expression checked through fluorescence.
High-Content Screening. […] HCS assay was developed at the Drug Discovery Unit, INCPM, Weizmann Institute of Science. […] Briefly, cells were treated with 10 uM of each compounds for 18 h and imaged in two wavelengths (FITC—excitation […], emission 520/35 nm and TRITC—excitation 543/22 nm, emission 593/40 nm) at ImageXpress Micro High-Content Imaging System/Molecular Devices. Rapamycin 100 nM was used as a control. In each cell plate, the neutral (DMSO) and positive control (Rapamycin) were repeated in 16 replicates while the treatments were performed in duplicates. Each plate was replicated and only hits found in the 2 independent plates were considered. Two fields of each well were analyzed, what normally allowed the analysis of 20-40 cells per condition. MitoTimer red/green ratio for every cell was done in MetaXpress. […] The compounds which affected MitoTimer red/green ratio in a dose response, ranging from […], were classified as a hit.
Individual cells were identified using the red channel, and red and green MitoTimer fluorescence were analyzed and ratio determined per cell.

INS1 cells [2] = experiment: Cell growth rate under doxycycline; conditions: 1 mg/ml, 24, 48 and 72 hours
Protocol: (§1) INS1 (an insulin secreting cell line) cells (FIGS. 1A and 1B) and primary beta-cells (FIG. 1C) were treated with 1 mg/ml doxycycline for 72 hours. […] FIGS. 1B and 1C show basal Oxygen Consumption Rate (OCR) measured with Seahorse XF 24 respirometer. Average of 4 wells +/−SEM.

primary beta-cells = experiment: Basal oxygen consumption rate in primary beta-cells; conditions: 1 mg/ml, 72 hours
Protocol: as §1

INS1 cells [3] = experiment: Mitochondrial mass by Mitotracker green staining; conditions: 18 h; SPB08007 25 μM, MWP00839 11.5 μM, Urolithin A 25 μM
Protocol: The Z-score depicts the standard deviation from the neutral control (DMSO). In FIG. 3C: Mitochondrial mass in INS1 cells treated for 18 hours with either DMSO (control), Urolithin A (25 μM), SPB08007 (“SBP”) (25 μM) or MWP00839 (“MWP”) (11.5 μM) and then stained with Mitotracker green (200 nM). In FIG. 3D: SPB08007 and MWP00839 increase the number of mitochondria inside autolysosomes. INS1 cells expressing mCherry-GFP were exposed to SPB08007, MWP00839, and DMSO for 8 hours and then subjected to confocal microscopy. The area of red fluorescence in the taken images was determined. N=3+/−SEM pANOVA<0.05. FIG. 3E provides representative images. […] FIG. 3F provides the Western blot against LC3 in INS1 cells treated with the compounds in presence or absence of bafilomycin (+b) for the last 2 hours.
Mitotracker Green Fluorescence, Anion Radical Superoxide and Mitochondrial Membrane Potential. INS1 cells were seeded into wells of a 96-wells glass bottom cell culture plate (CELLSTAR) at a density of 2*10^4 cells/well. To assess mitochondrial clearance, a pulse-chase experiment was performed. […] Results are expressed as the percentage of MTG fluorescence relative to MTG fluorescence of the “time 0” control. […] Integrated fluorescence of each field was analyzed in Image J after background subtraction and threshold (IsoData) application. Twenty-four fields of each condition were analyzed in each experiment.

With `CO/C1=C\C(C)=C\[C@@H](C)[C@@H](O)[C@@H](C)C/C(C)=C/C=C/[C@H](OC)[C@@H]([C@@H](C)[C@@H](O)[C@H](C)[C@@]2(O)C[C@@H](O)[C@H](C)[C@@H](C(C)C)O2)OC1=O` [bafilomycin A1, reference compound] the “MitoTimer red/green ratio (known modulators)” value [1] was “increased”.

`C[C@H]1c2cccc(O)c2C(=O)C2=C(O)[C@]3(O)C(=O)C(C(N)=O)=C(O)[C@@H](N(C)C)[C@@H]3[C@@H](O)[C@@H]21` [Doxycycline] was tested, and the cell growth (INS1 cells [2]) was “impairs” and the “basal oxygen consumption rate (OCR)” value (primary beta-cells) was “impairs”.

In the case of `O=c1oc2cc(O)ccc2c2ccc(O)cc12` [Urolithin A, reference compound], the “mitochondrial mass (mitotracker green fluorescence)” value (INS1 cells [3]) is reported as “reduction” and the “MitoTimer red/green ratio (known modulators)” value [1] is reported as “significantly reduced”.

For `CO[C@H]1C[C@@H]2CC[C@@H](C)[C@@](O)(O2)C(=O)C(=O)N2CCCC[C@H]2C(=O)O[C@H]([C@H](C)C[C@@H]2CC[C@@H](O)[C@H](OC)C2)CC(=O)[C@H](C)/C=C(\C)[C@@H](O)[C@@H](OC)C(=O)[C@H](C)C[C@H](C)/C=C/C=C/C=C/1C` [Rapamycin, reference compound], the “increase of MitoTimer red/green ratio” value [1] was 50%.
